# From patent US12570642B2, “GLP-IR modulating compounds” (Gilead Sciences, Inc., priority 2021, dated 2026)
# Molecular target: GLP-1R (Homo sapiens, UniProt P43220)
# Test: GLP-1R Activation - cAMP Assay
# Type: cell-based
# Conditions: each compound run on one of the two cAMP assays (Assay 1 or Assay 2, not specified)
# Summary of the method: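 cAMP rise read by HTRF after 30 min agonist exposure (10-point titration, 37 °C) in HBSS/20 mM Hepes/0.1% BSA, following 1 h pre-incubation. Cells: stable GLP-1R CHO line, 1,000/well, seeded overnight. Sigmoidal fit of response vs log concentration gives EC50.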
# [1] = cAMP increase in CHO cells stably expressing GLP-1R
# Sequence of GLP-1R (P43220 24-463): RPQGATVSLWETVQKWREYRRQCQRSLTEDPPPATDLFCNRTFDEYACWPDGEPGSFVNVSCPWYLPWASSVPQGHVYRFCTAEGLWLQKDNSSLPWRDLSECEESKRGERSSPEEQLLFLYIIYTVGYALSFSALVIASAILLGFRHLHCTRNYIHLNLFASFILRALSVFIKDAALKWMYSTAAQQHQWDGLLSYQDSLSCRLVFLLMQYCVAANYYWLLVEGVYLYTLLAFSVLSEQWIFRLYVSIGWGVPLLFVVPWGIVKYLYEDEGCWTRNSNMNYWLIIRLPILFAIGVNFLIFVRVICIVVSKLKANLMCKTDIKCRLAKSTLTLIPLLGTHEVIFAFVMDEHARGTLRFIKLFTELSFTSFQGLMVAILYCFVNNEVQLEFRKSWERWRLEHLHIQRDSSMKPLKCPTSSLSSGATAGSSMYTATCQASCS
Compound,EC50 ([…]) [nM],EC50 [1] [nM]
"CC(=O)N1C[C@@H](n2c(Cc3cc(F)c(-c4cccc(OCc5ccc(C#N)cc5F)n4)cc3F)nc3ccc(C(=O)O)cc32)C2(CC2)C1 [Example 15, (S)-1-(5-acetyl-5-azaspiro[2.4]heptan-7-yl)-2-(4-(6-((4-cyano-2-fluorobenzyl)oxy)pyridin-2-yl)-2,5-difluorobenzyl)-1H-benzo[d]imidazole-6-carboxylic Acid]",71,
"CO[C@H]1CN(C(C)=O)C[C@@H]1n1c(Cc2cc(F)c(-c3cccc(OCc4ccc(C#N)cc4F)n3)cc2F)nc2ccc(C(=O)O)cc21 [Example 16, 1-((3S,4S)-1-acetyl-4-methoxypyrrolidin-3-yl)-2-(4-(6-((4-cyano-2-fluorobenzyl)oxy)pyridin-2-yl)-2,5-difluorobenzyl)-1H-benzo[d]imidazole-6-carboxylic Acid]",4800,
"CC(=O)N[C@@H]1COC[C@@H]1n1c(Cc2cc(F)c(-c3cccc(OCc4ccc(C#N)cc4F)n3)cc2F)nc2ccc(C(=O)O)cc21 [Example 17, 1-((3R,4S)-4-acetamidotetrahydrofuran-3-yl)-2-(4-(6-((4-cyano-2-fluorobenzyl)oxy)pyridin-2-yl)-2,5-difluorobenzyl)-1H-benzo[d]imidazole-6-carboxylic Acid]",5.61,
"CC(=O)N1C[C@@H]2[C@H](n3c(Cc4cc(F)c(-c5cccc(OCc6ccc(C#N)cc6F)n5)cc4F)nc4ccc(C(=O)O)cc43)CO[C@@H]2C1 [Example 18, 1-((3S,3aR,6aS)-5-acetylhexahydro-2H-furo[2,3-c]pyrrol-3-yl)-2-(4-(6-((4-cyano-2-fluorobenzyl)oxy)pyridin-2-yl)-2,5-difluorobenzyl)-1H-benzo[d]imidazole-6-carboxylic Acid]",,49.2
N#Cc1ccc(COc2cccc(-c3cc(F)c(Cc4nc5ccc(C(=O)O)cc5n4[C@@H]4CO[C@H]5OCC[C@H]54)cc3F)n2)c(F)c1 [Example 19],,0.6
"N#Cc1ccc(COc2cccc(-c3cc(F)c(Cc4nc5ccc(C(=O)O)cc5n4[C@H]4CO[C@H]5OCC[C@H]54)cc3F)n2)c(F)c1 [Example 20, 2-(4-(6-((4-cyano-2-fluorobenzyl)oxy)pyridin-2-yl)-2,5-difluorobenzyl)-1-((3R,3aS,6aR)-hexahydrofuro[2,3-b]furan-3-yl)-1H-benzo[d]imidazole-6-carboxylic Acid]",,0.35
"CC1(C)COCC1n1c(Cc2cc(F)c(-c3cccc(OCc4ccc(C(F)F)cc4F)n3)cc2F)nc2ccc(C(=O)O)cc21 (stereo not drawn) [Example 21, 2-(4-(6-((4-(difluoromethyl)-2-fluorobenzyl)oxy)pyridin-2-yl)-2,5-difluorobenzyl)-1-(4,4-dimethyltetrahydrofuran-3-yl)-1H-benzo[d]imidazole-6-carboxylic Acid]",,0.11
"CC(Cn1c(Cc2cc(F)c(-c3cccc(OCc4ccc(C#N)cc4F)n3)cc2F)nc2ccc(C(=O)O)cc21)OC(F)F (stereo not drawn) [Example 22, 2-(4-(6-((4-cyano-2-fluorobenzyl)oxy)pyridin-2-yl)-2,5-difluorobenzyl)-1-(2-(difluoromethoxy)propyl)-1H-benzo[d]imidazole-6-carboxylic Acid]",,0.72
COCCn1c(Cc2cc(F)c(-c3cccc(OCc4ncc(Br)cc4F)n3)cc2F)nc2ccc(C(=O)O)cc21 [Example 23],,4.57
"COCCn1c(Cc2cc(F)c(-c3cccc(OCc4cnc(Cl)cn4)n3)cc2F)nc2ccc(C(=O)O)cc21 [Example 24, 2-(4-(6-((5-chloropyrazin-2-yl)methoxy)pyridin-2-yl)-2,5-difluorobenzyl)-1-(2-methoxyethyl)-1H-benzo[d]imidazole-6-carboxylic Acid]",,9.96
COCCn1c(Cc2cc(F)c(-c3cccc(OCc4ccc(C)nc4C)n3)cc2F)nc2ccc(C(=O)O)cc21 [Example 25],,7.55
"COCCn1c(Cc2cc(F)c(-c3cccc(OCc4cc(F)ccc4F)n3)cc2F)nc2ccc(C(=O)O)cc21 [Example 26, 2-(4-(6-((2,5-difluorobenzyl)oxy)pyridin-2-yl)-2,5-difluorobenzyl)-1-(2-methoxyethyl)-1H-benzo[d]imidazole-6-carboxylic Acid]",,18.7
"COCCn1c(Cc2cc(F)c(-c3cccc(OCc4cc(F)c(F)cc4F)n3)cc2F)nc2ccc(C(=O)O)cc21 [Example 27, 2-(2,5-difluoro-4-(6-((2,4,5-trifluorobenzyl)oxy)pyridin-2-yl)benzyl)-1-(2-methoxyethyl)-1H-benzo[d]imidazole-6-carboxylic Acid]",,13.1
"COCCn1c(Cc2cc(F)c(-c3cccc(OCc4cc(F)c(C)cc4F)n3)cc2F)nc2ccc(C(=O)O)cc21 [Example 28, 2-(4-(6-((2,5-difluoro-4-methylbenzyl)oxy)pyridin-2-yl)-2,5-difluorobenzyl)-1-(2-methoxyethyl)-1H-benzo[d]imidazole-6-carboxylic Acid]",,1.46
"COCCn1c(Cc2cc(F)c(-c3cccc(OCc4cnc(C)cn4)n3)cc2F)nc2ccc(C(=O)O)cc21 [Example 29, 2-(2,5-difluoro-4-(6-((5-methylpyrazin-2-yl)methoxy)pyridin-2-yl)benzyl)-1-(2-methoxyethyl)-1H-benzo[d]imidazole-6-carboxylic Acid]",,36
"COCCn1c(Cc2cc(F)c(-c3cccc(OCc4ccc5nccn5c4)n3)cc2F)nc2ccc(C(=O)O)cc21 [Example 30, 2-(2,5-difluoro-4-(6-(imidazo[1,2-a]pyridin-6-ylmethoxy)pyridin-2-yl)benzyl)-1-(2-methoxyethyl)-1H-benzo[d]imidazole-6-carboxylic Acid]",,49.9
"COCCn1c(Cc2cc(F)c(-c3cccc(OCc4ncc(F)cc4F)n3)cc2F)nc2ccc(C(=O)O)cc21 [Example 31, 2-(4-(6-((3,5-difluoropyridin-2-yl)methoxy)pyridin-2-yl)-2,5-difluorobenzyl)-1-(2-methoxyethyl)-1H-benzo[d]imidazole-6-carboxylic Acid]",,30.4
"COCCn1c(Cc2cc(F)c(-c3cccc(OCc4ccc(OC(F)(F)F)cc4)n3)cc2F)nc2ccc(C(=O)O)cc21 [Example 32, 2-(2,5-difluoro-4-(6-((4-(trifluoromethoxy)benzyl)oxy)pyridin-2-yl)benzyl)-1-(2-methoxyethyl)-1H-benzo[d]imidazole-6-carboxylic Acid]",,3.43
"COCCn1c(Cc2cc(F)c(-c3cccc(OCc4ccc(C(F)(F)F)nc4C)n3)cc2F)nc2ccc(C(=O)O)cc21 [Example 33, 2-(2,5-difluoro-4-(6-((2-methyl-6-(trifluoromethyl)pyridin-3-yl)methoxy)pyridin-2-yl)benzyl)-1-(2-methoxyethyl)-1H-benzo[d]imidazole-6-carboxylic Acid]",,2.58
"COCCn1c(Cc2cc(F)c(-c3cccc(OCc4ccc(C(F)(F)F)nc4Cl)n3)cc2F)nc2ccc(C(=O)O)cc21 [Example 34, 2-(4-(6-((2-chloro-6-(trifluoromethyl)pyridin-3-yl)methoxy)pyridin-2-yl)-2,5-difluorobenzyl)-1-(2-methoxyethyl)-1H-benzo[d]imidazole-6-carboxylic Acid]",,3.25
"COCCn1c(Cc2cc(F)c(-c3cccc(OCc4ccc(OCC(F)(F)F)nc4)n3)cc2F)nc2ccc(C(=O)O)cc21 [Example 35, 2-(2,5-difluoro-4-(6-((6-(2,2,2-trifluoroethoxy)pyridin-3-yl)methoxy)pyridin-2-yl)benzyl)-1-(2-methoxyethyl)-1H-benzo[d]imidazole-6-carboxylic Acid]",,2.67
COCCn1c(Cc2cc(F)c(-c3cccc(OCc4cnc(-c5cnn(C(F)F)c5)cn4)n3)cc2F)nc2ccc(C(=O)O)cc21 [Example 36],,1.04
"COCCn1c(Cc2cc(F)c(-c3cccc(OCc4cnc(-c5cn(C)nn5)cn4)n3)cc2F)nc2ccc(C(=O)O)cc21 [Example 37, 2-(2,5-difluoro-4-(6-((5-(1-methyl-1H-1,2,3-triazol-4-yl)pyrazin-2-yl)methoxy)pyridin-2-yl)benzyl)-1-(2-methoxyethyl)-1H-benzo[d]imidazole-6-carboxylic Acid]",,1.97
"COCCn1c(Cc2cc(F)c(-c3cccc(OCc4cnc(-c5cnn(C)c5)cn4)n3)cc2F)nc2ccc(C(=O)O)cc21 [Example 38, 2-(2,5-difluoro-4-(6-((5-(1-methyl-1H-pyrazol-4-yl)pyrazin-2-yl)methoxy)pyridin-2-yl)benzyl)-1-(2-methoxyethyl)-1H-benzo[d]imidazole-6-carboxylic Acid]",,4.02
COCCn1c(Cc2cc(F)c(-c3cccc(OCc4ncc(C#N)cc4F)n3)cc2F)nc2ccc(C(=O)O)cc21 [Example 39],,8.98
CC(=O)N1C[C@@H](F)[C@H](n2c(Cc3cc(F)c(-c4cccc(OCc5ccc(C#N)cc5F)n4)cc3F)nc3ccc(C(=O)O)cc32)C1 [Example 40],155,
COCCn1c(Cc2cc(F)c(-c3cc(C(F)F)cc(OCc4ccc(C#N)cc4F)n3)cc2F)nc2ccc(C(=O)O)cc21 [Example 41],,4.88
"COCCn1c(Cc2cc(F)c(-c3cc(Cl)cc(OCc4ccc(C#N)cc4F)n3)cc2F)nc2ccc(C(=O)O)cc21 [Example 42, 2-(4-(4-chloro-6-((4-cyano-2-fluorobenzyl)oxy)pyridin-2-yl)-2,5-difluorobenzyl)-1-(2-methoxyethyl)-1H-benzo[d]imidazole-6-carboxylic Acid]",,4.25
"COCCn1c(Cc2cc(F)c(-c3cc(OC)cc(OCc4ccc(C#N)cc4F)n3)cc2F)nc2ccc(C(=O)O)cc21 [Example 43, 2-(4-(6-((4-cyano-2-fluorobenzyl)oxy)-4-methoxypyridin-2-yl)-2,5-difluorobenzyl)-1-(2-methoxyethyl)-1H-benzo[d]imidazole-6-carboxylic Acid]",,20.8
"COCCn1c(Cc2cc(F)c(-c3cc(O)cc(OCc4ccc(C#N)cc4F)n3)cc2F)nc2ccc(C(=O)O)cc21 [Example 44, 2-(4-(6-((4-cyano-2-fluorobenzyl)oxy)-4-hydroxypyridin-2-yl)-2,5-difluorobenzyl)-1-(2-methoxyethyl)-1H-benzo[d]imidazole-6-carboxylic Acid]",,0.81
